Laboratory results taken from the supplement of paper PMC12350171.

Tests used:
[1] = test system: Com21 synthetic gut community; experiment: community biomass OD578 after 24 h drug treatment relative to untreated (fraction of untreated control); higher = more community growth; conditions: community: Com21 (Com20 + E. coli ED1a)
Description: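 Com21 (Com20 plus E. coli ED1a) was treated with drug for 24 h under anaerobic conditions in mGAM. Community OD578 was then measured and normalised to untreated Com21; mean of 3 biological replicates.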

[2] = test system: Bacteroides fragilis NT; experiment: IC25 growth inhibition; higher = less potent
Outline: (§1)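 Overnight monocultures grown in mGAM were moved into pre-reduced plates containing twofold drug dilutions, at a starting OD578 of 0.01 with 1% DMSO (or water). Plates were kept anaerobic and read hourly at OD578 in a plate reader, with at least three biological replicates. For each concentration, the median area under the growth curve was made monotonic, and IC25 was the lowest concentration whose median fell below a cutoff, reported as a tested interval. That cutoff was 0.75.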

[3] = test system: Bacteroides thetaiotaomicron; experiment: IC25 growth inhibition; higher = less potent
Outline: as §1

[4] = test system: Bacteroides uniformis; experiment: IC25 growth inhibition; higher = less potent
Outline: as §1

[5] = test system: Bacteroides vulgatus; experiment: IC25 growth inhibition; higher = less potent
Outline: as §1

[6] = test system: Clostridium bolteae; experiment: IC25 growth inhibition; higher = less potent
Outline: as §1

[7] = test system: Clostridium perfringens; experiment: IC25 growth inhibition; higher = less potent
Outline: as §1

[8] = test system: Clostridium ramosum; experiment: IC25 growth inhibition; higher = less potent
Outline: as §1

[9] = test system: Clostridium saccharolyticum; experiment: IC25 growth inhibition; higher = less potent
Outline: as §1

[10] = test system: Collinsella aerofaciens; experiment: IC25 growth inhibition; higher = less potent
Outline: as §1

[11] = test system: Coprococcus comes; experiment: IC25 growth inhibition; higher = less potent
Outline: as §1

[12] = test system: Dorea formicigenerans; experiment: IC25 growth inhibition; higher = less potent
Outline: as §1

[13] = test system: Escherichia coli ED1a; experiment: IC25 growth inhibition; higher = less potent
Outline: as §1

[14] = test system: Eubacterium rectale; experiment: IC25 growth inhibition; higher = less potent
Outline: as §1

[15] = test system: Fusobacterium nucleatum subsp. Nucleatum; experiment: IC25 growth inhibition; higher = less potent
Outline: as §1

[16] = test system: Parabacteroides merdae; experiment: IC25 growth inhibition; higher = less potent
Outline: as §1

[17] = test system: Roseburia intestinalis; experiment: IC25 growth inhibition; higher = less potent
Outline: as §1

[18] = test system: Ruminococcus gnavus; experiment: IC25 growth inhibition; higher = less potent
Outline: as §1

[19] = test system: Shigella flexneri; experiment: IC25 growth inhibition; higher = less potent
Outline: as §1

[20] = test system: Streptococcus parasanguinis; experiment: IC25 growth inhibition; higher = less potent
Outline: as §1

[21] = test system: Streptococcus salivarius; experiment: IC25 growth inhibition; higher = less potent
Outline: as §1

[22] = test system: Vibrio cholerae; experiment: IC25 growth inhibition; higher = less potent
Outline: as §1

[23] = test system: Yersinia enterocolitica WA-314; experiment: IC25 growth inhibition; higher = less potent
Outline: as §1

[24] = test system: Yersinia pseudotuberculosis; experiment: IC25 growth inhibition; higher = less potent
Outline: as §1

[25] = test system: Salmonella enterica typhimurium; experiment: IC25 growth inhibition; higher = less potent
Outline: as §1
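For IC25 growth inhibition in this document: lowest concentration where monotonic median growth AUC falls below 0.75 of drug-free control.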

Row | SMILES | community biomass OD578 ([1]; drug pretreatment concentration 10 µM) | community biomass OD578 ([1]; drug pretreatment concentration 20 µM) | community biomass OD578 ([1]; drug pretreatment concentration 40 µM) | community biomass OD578 ([1]; drug pretreatment concentration 80 µM) | community biomass OD578 ([1]; drug pretreatment concentration 160 µM) | IC25 growth inhibition [2] [µM] | IC25 growth inhibition [3] [µM] | IC25 growth inhibition [4] [µM] | IC25 growth inhibition [5] [µM] | IC25 growth inhibition [6] [µM] | IC25 growth inhibition [7] [µM] | IC25 growth inhibition [8] [µM] | IC25 growth inhibition [9] [µM] | IC25 growth inhibition [10] [µM] | IC25 growth inhibition [11] [µM] | IC25 growth inhibition [12] [µM] | IC25 growth inhibition [13] [µM] | IC25 growth inhibition [14] [µM] | IC25 growth inhibition [15] [µM] | IC25 growth inhibition [16] [µM] | IC25 growth inhibition [17] [µM] | IC25 growth inhibition [18] [µM] | IC25 growth inhibition [19] [µM] | IC25 growth inhibition [20] [µM] | IC25 growth inhibition [21] [µM] | IC25 growth inhibition [22] [µM] | IC25 growth inhibition [23] [µM] | IC25 growth inhibition [24] [µM] | IC25 growth inhibition [25] [µM]
1 | Cc1c(N(C)CS(=O)(=O)O)c(=O)n(-c2ccccc2)n1C [Metamizole] | 1 | 0.981 | 1.01 | 1 | 0.994 |  |  |  |  |  |  |  |  |  |  |  |  |  |  |  |  |  |  |  |  |  |  |  | 
2 | Cc1ncc([N+](=O)[O-])n1CCO [Metronidazol] |  |  |  |  |  | < 1.25 | < 1.25 | < 1.25 | < 1.25 | < 1.25 | < 1.25 | < 1.25 | < 1.25 | < 1.25 | < 1.25 | < 1.25 | > 160 | < 1.25 | < 1.25 | < 1.25 | < 1.25 | < 1.25 | > 160 | ≤ 160 | > 160 | ≤ 160 | > 160 | ≤ 160 | 
3 | CC(C)(O)c1ccccc1CC[C@@H](SCC1(CC(=O)O)CC1)c1cccc(/C=C/c2ccc3ccc(Cl)cc3n2)c1 [Montelukast] |  |  |  |  |  | > 40 | > 80 | > 80 | > 80 | > 40 | ≤ 5 | > 10 | > 10 | > 20 | > 80 | > 80 | > 160 | ≤ 10 | > 80 | > 80 | ≤ 10 | > 80 | > 20 | ≤ 10 | ≤ 5 | > 20 | > 10 | > 20 | > 10
4 | CCn1cc(C(=O)O)c(=O)c2ccc(C)nc21 [Nalidixic Acid] |  |  |  |  |  | ≤ 160 | ≤ 160 | ≤ 160 | > 160 | > 160 | ≤ 20 | ≤ 160 | > 160 | > 160 | > 160 | > 160 | ≤ 5 | > 160 | ≤ 160 | ≤ 80 | > 160 | > 160 | ≤ 2.5 | > 160 | > 160 | < 1.25 | > 160 | ≤ 2.5 | ≤ 5
5 | CCn1cc(C(=O)O)c(=O)c2cc(F)c(N3CCNCC3)cc21 [Norfloxacin] |  |  |  |  |  | ≤ 80 | ≤ 80 | ≤ 20 | ≤ 80 | ≤ 20 | ≤ 2.5 | ≤ 160 | ≤ 40 | ≤ 10 | ≤ 20 | ≤ 10 | < 1.25 | ≤ 40 | ≤ 20 | ≤ 40 | ≤ 160 | ≤ 10 | < 1.25 | ≤ 20 | ≤ 10 | < 1.25 | ≤ 10 | ≤ 10 | < 1.25
6 | CO[C@@H]1[C@@H](OC(N)=O)[C@@H](O)[C@H](Oc2ccc3c(O)c(NC(=O)c4ccc(O)c(CC=C(C)C)c4)c(=O)oc3c2C)OC1(C)C [Novobiocin] |  |  |  |  |  | ≤ 20 | ≤ 20 | < 1.25 | < 1.25 | < 1.25 | ≤ 5 | ≤ 5 | ≤ 10 | < 1.25 | < 1.25 | < 1.25 | ≤ 5 | ≤ 5 | ≤ 5 | < 1.25 | < 1.25 | < 1.25 | ≤ 2.5 | < 1.25 | < 1.25 | < 1.25 | ≤ 20 | ≤ 20 | ≤ 40
7 | N=C(N)c1ccc(OCCCCCOc2ccc(C(=N)N)cc2)cc1 [Pentamidine Isothionate] |  |  |  |  |  | ≤ 80 | ≤ 20 | ≤ 20 | ≤ 20 | > 160 | ≤ 2.5 | ≤ 40 | ≤ 10 | ≤ 10 | < 1.25 | < 1.25 | > 160 | ≤ 5 | ≤ 10 | ≤ 5 | ≤ 5 | ≤ 2.5 | ≤ 160 | ≤ 10 | ≤ 10 | > 160 | > 80 | ≤ 160 | 
8 | CN[C@H]1CC[C@@H](c2ccc(Cl)c(Cl)c2)c2ccccc21 [Sertraline] |  |  |  |  |  | ≤ 160 | ≤ 80 | ≤ 160 | > 160 | ≤ 160 | ≤ 80 | ≤ 80 | ≤ 80 | ≤ 80 | ≤ 160 | ≤ 80 | ≤ 160 | ≤ 10 | ≤ 160 | ≤ 80 | ≤ 40 | ≤ 40 | ≤ 160 | ≤ 160 | ≤ 80 | ≤ 80 | ≤ 80 | ≤ 160 | > 160
9 | O=C(O)Cc1cc(I)c(Oc2ccc(O)c(I)c2)c(I)c1 [Tiratricol] |  |  |  |  |  | ≤ 80 | ≤ 80 | ≤ 80 | ≤ 40 | ≤ 80 | ≤ 20 | ≤ 20 | ≤ 20 | ≤ 80 | ≤ 20 | ≤ 80 | > 160 | ≤ 160 | ≤ 40 | ≤ 40 | ≤ 40 | ≤ 20 | > 160 | ≤ 20 | ≤ 10 | ≤ 80 | > 160 | > 160 | > 160
